Assays:
[1] = tested on: heart tissue section of an ischemic heart disease model rat; assay: In vitro autoradiography using ischemic heart disease model rat (Example 3); format: binding; settings: for accumulation in the presence of an excessive amount of non-labeled compound (binding specificity): 5 μmol/L non-labeled compound (Compound 1 or Compound 2) added, FIG. 4(e)-(h) / FIG. 5(c),(d); for ratio of ischemia reperfusion site signal intensity/non-ischemic site signal intensity: ROI on autoradiograms, n=4, FIG. 7; for accumulation in lesion region on in vitro autoradiogram: sections immersed in labeled compound solution 30 minutes at room temperature, FIG. 4 / FIG. 5
Description: (§1) The chest of each Wistar rat (male) was opened under isoflurane anesthesia, and the left coronary artery was ligated for 30 minutes, followed by reperfusion. The chest was closed to prepare an ischemic heart disease model rat. Approximately 1 week after the operation, the rat was sacrificed under anesthesia, and the heart was taken out thereof. Sections of 5 μm in thickness were prepared from the base side of the heart. Immunostaining was carried out using the prepared sections to confirm the expression and distribution of CPY11B2. As an anti-CYP11B2 antibody, one prepared according to the method described in Ogishima T et al., Endocrinology, 1992, vol. 130, pp. 2971-7 was used. As a secondary antibody, HRP Labelled Polymer Anti-Rabbit (manufactured by Dako/Agilent Technologies, Inc.) was used. CYP11B2 expression sites were detected by applying DAB+(3,3′-diaminobenzidine tetrahydrochloride) substrate kit (manufactured by Dako/Agilent Technologies, Inc.) to the HRP bound to the secondary antibody.
Each ischemic heart disease model rat was prepared in the same way as in Example 1. The rat was sacrificed under isoflurane anesthesia between 1 and 3 weeks after the operation. Then, the heart was harvested, and 5 μm sections were prepared and preserved at −80° C. until they were used. The sections were brought back to room temperature from −80° C., dried for 30 minutes or longer, then immersed in phosphate-buffered saline for 30 minutes, and subsequently immersed in phosphate-buffered saline containing 1 w/v % bovine serum albumin for 30 minutes for hydrophilization. Each phosphate-buffered saline containing 1 w/v % bovine serum albumin and further containing Compound [^18F] 1 (radioactivity concentration: approximately 40 kBq/mL) or Compound [^123I] 2 (radioactivity concentration: approximately 10 kBq/mL) was prepared, and the hydrophilized sections were immersed therein at room temperature for 30 minutes. Then, the sections were washed by immersing for 5 minutes each in phosphate-buffered saline containing 1 w/v % bovine serum albumin, phosphate-buffered saline, and phosphate-buffered saline. The sections thus washed were thoroughly dried and then exposed to light for approximately 3 hours as to Compound [^18F] 1 and for approximately 16 hours as to Compound [^123I] 2 on an imaging plate (BAS-SR2040, manufactured by Fujifilm Corp.). Autoradiograms were obtained using a fluoro image analyzer (FLA-7000, manufactured by GE Healthcare Corp.).
Also, autoradiograms were obtained by immersing the sections in a solution containing Compound [^18F] 1 together with 5 μmol/L of Compound 1, or a solution containing Compound [^123I] 2 together with 5 μmol/L of Compound 2 in the same way as above.
The same experiment as above was conducted using the heart harvested from a normal rat.
ROI was established at an ischemia reperfusion site and a non-ischemic site as to the autoradiography of Compound [^18F] 1 and Compound [^123I] 2, and the ratio of signal intensity was compared between these sites. FIG. 7(a) is one example of an autoradiogram of the section immersed in Compound [^18F] 1. FIG. 7(c) is one example of an autoradiogram of the section immersed in Compound [^123I] 2. In both FIGS. 7(a) and 7(c), ROI of the ischemia reperfusion site is surrounded with the solid line, and ROI of the non-ischemic site is surrounded with the broken line. […] 1 in each rat. […] 2 in each rat. […] 1 and Compound [^123I] 2 at the ischemia reperfusion site compared with the non-ischemic site was observed. Higher accumulation of Compound [^123I] 2 than that of Compound [^18F] 1 was also observed.

[2] = tested on: ischemic heart disease model rat; assay: Ex vivo autoradiography using ischemic heart disease model rat (Example 2); format: in vivo
Description: as §1
Each ischemic heart disease model rat was prepared in the same way as in Example 1. Compound [^18F] 1 was administered thereto (approximately 50 MBq/rat) between 1 and 3 weeks after the operation. 20 minutes after the administration, the rat was sacrificed under anesthesia, and the heart was taken out thereof. […]

normal rat = assay: SPECT imaging experiment using normal rat (Example 5); format: in vivo; settings: approximately 100 MBq/rat, imaging started 150 minutes after administration, FIG. 9(a)-(c)
Description: Each ischemic heart disease model rat was prepared in the same way as in Example 1. Compound [^123I] 2 was administered thereto (approximately 100 MBq/rat) in one week after the operation. Static imaging for approximately 8 minutes was started at 150 minutes after the administration using a SPECT apparatus for animals (FX3000, manufactured by TriFoil Imaging). Data collection was carried out in an energy window of 143 to 175 keV, and the collected data was reconstituted by OSEM (Ordered Subset Expectation Maximization) to obtain images. Computed tomography imaging was carried out in order to identify the position of the heart. The same experiment as above was conducted using a normal rat.

[3] = tested on: ischemic heart disease model rat; assay: SPECT imaging experiment using ischemic heart disease model rat (Example 5); format: in vivo; settings: approximately 100 MBq/rat, one week after operation, static imaging started 150 minutes after administration, FIG. 9(d)-(f)
Description: as §1
Each ischemic heart disease model rat was prepared in the same way as in Example 1. Compound [^123I] 2 was administered thereto (approximately 100 MBq/rat) in one week after the operation. Static imaging for approximately 8 minutes was started at 150 minutes after the administration using a SPECT apparatus for animals (FX3000, manufactured by TriFoil Imaging). […]

[4] = tested on: heart tissue section of an ischemic heart disease model rat; assay: Influence of elapsed time after ischemic heart disease model rat preparation on compound accumulation, in vitro autoradiography (Example 4); format: binding; settings: normal rat and 1 day, 3 days, 1 week after the operation, FIG. 8(a)
Description: as §1
(§2) Each ischemic heart disease model rat was prepared in the same way as in Example 1. The rat was sacrificed under isoflurane anesthesia 1 day (3 rats), 3 days (4 rats) or 1 week (4 rats) after the operation. […] 2 (radioactivity concentration: approximately 10 kBq/mL) was prepared, and the hydrophilized sections were immersed therein at room temperature for 30 minutes. […]

[5] = tested on: heart tissue section of a hypertensive heart disease model rat; assay: In vitro autoradiography using hypertensive heart disease model rat (Example 9); format: binding
Description: Each DIS/Eis (Dahl-Iwai S) rat (male, Japan SLC, Inc.) was fed with 8% NaCl diet (Oriental Yeast Co., Ltd.) from the age of 5 weeks, raised up to the age of 11 weeks, and then sacrificed under anesthesia, and the heart was taken out thereof. Sections of 5 μm in thickness were prepared. Immunostaining was carried out using the prepared sections to confirm the expression and distribution of CPY11B2. As an anti-CYP11B2 antibody, one prepared according to the method described in Ogishima T et al., Endocrinology, 1992, vol. 130, pp. 2971-7 was used. As a secondary antibody, HRP Labelled Polymer Anti-Rabbit (manufactured by Dako/Agilent Technologies, Inc.) was used. CYP11B2 expression sites were detected by applying DAB+(3,3′-diaminobenzidine tetrahydrochloride) substrate kit (manufactured by Dako/Agilent Technologies, Inc.) to the HRP bound to the secondary antibody. The same experiment as above was conducted using the heart harvested from a DIS/Eis rat raised with a NaCl-free diet (normal rat).
Each hypertensive heart disease model rat was prepared in the same way as in Example 8. The heart was harvested, and 5 μm-thick sections were prepared and preserved at −80° C. until they were used. […] 3 (radioactivity concentration: approximately 10 kBq/mL) was prepared, and the hydrophilized sections were immersed therein at room temperature for 30 minutes. […]

[6] = tested on: heart tissue section of a myocarditis model rat; assay: In vitro autoradiography using myocarditis model rat (Example 7); format: binding
[7] = tested on: heart tissue section of an ischemic heart disease model rat; assay: In vitro autoradiography using ischemic heart disease model rat (Example 10); format: binding; settings: ischemic heart disease model rat one week after operation, approximately 10 kBq/mL, FIG. 14
Description: as §1
as §2, with “in one” for “1 day (3 rats), 3 days (4 rats) or 1”, “week” for “week (4 rats)”, “3” for “2”

Row | Compound | accumulation in the presence of an excessive amount of non-labeled compound (binding specificity) [1] | ratio of ischemia reperfusion site signal intensity/non-ischemic site signal intensity [1] | accumulation in lesion region on in vitro autoradiogram [1] | staining findings at the position corresponding to the accumulation site ([2]; HE, Masson trichrome and CYP11B2 immunostaining of adjacent section, FIG. 3) | accumulation in the heart on ex vivo autoradiogram ([2]; approximately 50 MBq/rat, 1 to 3 weeks after operation, heart taken 20 minutes after administration, FIG. 2) | agreement of accumulation with fibrosis region ([1]; Masson trichrome staining of the same section, FIG. 6) | accumulation compared between the two labeled compounds ([1]; signal intensity ratio, FIG. 7(b) versus 7(d)) | accumulation in the heart on SPECT image (normal rat) | accumulation in the heart on SPECT image [3] | ratio of ischemia reperfusion site signal intensity/non-ischemic site signal intensity with elapsed time [4] | agreement of accumulation with fibrosis region ([5]; Masson trichrome staining of adjacent section, FIG. 13) | accumulation in heart tissue section compared with normal rat ([5]; approximately 10 kBq/mL, FIG. 13(a),(b)) | agreement of accumulation with fibrosis region ([6]; Masson trichrome staining of adjacent section, FIG. 11) | accumulation in heart tissue section compared with normal rat ([6]; approximately 10 kBq/mL, FIG. 11(a),(b)) | accumulation in lesion region compared with normal rat [7]
1 | Fc1cc2nc(-c3cncc(Cn4ccnc4)c3)n(CC[18F])c2cc1Cl [Compound [^18F] 1, 6-chloro-5-fluoro-1-(2-[^18F]fluoroethyl)-2-[5-(imidazol-1-ylmethyl)pyridin-3-yl]benzimidazole] | inhibited by the addition of an excessive amount of a non-labeled compound, suggesting that the binding is specific | increased accumulation | accumulation of Compound [^18F] 1 in a lesion region was confirmed | inflammatory reaction, fibrosis, and CYP11B2 expression were also confirmed at a position corresponding to the accumulation site | local accumulation of Compound [^18F] 1 was confirmed | – | – | – | – | – | – | – | – | – | –
2 | FCCn1c(-c2cncc(Cn3ccnc3)c2)nc2ccc([123I])cc21 [Compound [^123I] 2, 1-(2-fluoroethyl)-2-[5-{(imidazol-1-yl)methyl}pyridin-3-yl]-6-[^123I]iodobenzimidazole] | inhibited by the addition of an excessive amount of a non-labeled compound, suggesting that the binding is specific | increased accumulation | accumulation of Compound [^123I] 2 in a lesion region was confirmed | – | – | in good agreement with a fibrosis region | Higher accumulation of Compound [^123I] 2 than that of Compound [^18F] 1 | not observed in the heart of the normal rat | confirmed in the heart of the ischemic heart disease model rat | increased with elapsed time after the operation | – | – | – | – | –
3 | Cn1c(-c2cncc(Cn3ccnc3)c2)nc2ccc([123I])cc21 [Compound [^123I] 3, 2-[5-{(1H-imidazol-1-yl)methyl}pyridin-3-yl]-6-[^123I]iodo-1-methyl-1H-benz[d]imidazole] | – | – | – | – | – | – | – | – | – | – | in good agreement with a fibrosis region | increased accumulation | in good agreement with a fibrosis region | increased accumulation | increased accumulation
